Assay results taken from patent US7244557B2, “Method of screening modulators of Nod1 signaling” (Regents of the University of Michigan, priority 2003, dated 2007).

Target: T1, NOD1 (Homo sapiens, UniProt Q9Y239)
T1 construct: expressed in transfected cells; host or cells: HEK293T
T1 sequence (Q9Y239 1-953): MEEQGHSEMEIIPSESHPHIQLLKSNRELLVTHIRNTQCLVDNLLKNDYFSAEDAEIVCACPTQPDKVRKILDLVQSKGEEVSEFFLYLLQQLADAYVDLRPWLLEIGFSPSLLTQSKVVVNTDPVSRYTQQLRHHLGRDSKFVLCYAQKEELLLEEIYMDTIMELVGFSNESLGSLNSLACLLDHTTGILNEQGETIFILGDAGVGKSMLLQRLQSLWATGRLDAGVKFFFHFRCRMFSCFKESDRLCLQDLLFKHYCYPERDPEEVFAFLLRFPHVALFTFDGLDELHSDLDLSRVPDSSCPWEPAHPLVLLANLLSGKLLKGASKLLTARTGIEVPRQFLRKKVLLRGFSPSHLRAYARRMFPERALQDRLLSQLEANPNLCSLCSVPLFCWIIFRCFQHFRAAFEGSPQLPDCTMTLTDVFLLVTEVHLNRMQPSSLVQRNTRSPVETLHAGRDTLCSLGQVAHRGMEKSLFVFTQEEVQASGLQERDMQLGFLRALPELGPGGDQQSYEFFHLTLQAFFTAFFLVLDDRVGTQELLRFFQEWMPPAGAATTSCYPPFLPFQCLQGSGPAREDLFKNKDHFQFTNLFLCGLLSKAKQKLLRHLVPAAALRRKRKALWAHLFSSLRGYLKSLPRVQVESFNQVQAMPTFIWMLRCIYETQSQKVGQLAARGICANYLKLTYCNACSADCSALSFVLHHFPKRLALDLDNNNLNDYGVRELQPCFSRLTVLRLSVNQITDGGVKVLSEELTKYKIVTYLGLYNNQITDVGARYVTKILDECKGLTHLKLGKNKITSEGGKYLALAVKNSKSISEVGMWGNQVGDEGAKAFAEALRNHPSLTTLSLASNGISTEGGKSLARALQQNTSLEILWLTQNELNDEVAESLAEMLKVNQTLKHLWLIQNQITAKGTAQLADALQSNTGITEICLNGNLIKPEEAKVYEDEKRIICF
Assay: NF-κB-dependent luciferase reporter assay, HEK293T cells expressing NOD1
Type: cell-based
Source text: Reagents. LPS from S. typhimurium, intact and alkaline-detoxified LPS from E. coli O55:B5 as well as purified lipid A preparations of E. coli F583, MDP, DAP and dsRNA were obtained from Sigma-Aldrich (St. Louis, Mo.). PGN from S. aureus was from Fluka-Chemie (Buchs, Germany). Palmitoyl-Cys ((RS)-2,3-di(palmitoyloxy)-propyl)-Ala-Gly) (sBLP), was obtained from Bachem (Torrance, Calif.). The tetrameric form of the disaccharide dipeptide was described previously (Inohara et al., J. Biol. Chem. 278:5509 [2003]). iE-DAP and iQ-DAP, M3P and M4P were synthesized as described (Kitaura et al., J. Med. Chem. 25:335 [1982]) with small modification. Purification of PGN from B. subtilis 168 and C. flaccumfaciens with hydrolases, Cellosyl or recombinant AtlE (amidase domain) and the fractionation and purification of reduced B. subtilis PGN digested with Cellosyl were performed as previously described (Heilman et al., Mol. Microbiol. 24:1013 [1997]; Atrih et al., J. Bact. 181:3956 [1999]). Removal of proteins and reduction of LPS fraction. E. coli O55:B5 LPS (Sigma) was treated with proteinase K at 37° C. for 12 hr to digest contaminating proteins. To eliminate lipoproteins, LPS was subjected to modified phenol extraction with deoxycholate-containing phenol as described (Hirschfeld et al., J. Immunol. 165:618 [2000]). For reduction of carboxyl group in the LPS, the LPS was treated with 1-ethyl-3-(3-dimethylaminopropyl) carbodiimide and then reduced with NaBH4 as described (Taylor et al., Biochemistry 11:1383 [1972]). Preparation of E. coli extract. E. coli K-12 mutants were all based on the SØ864 genetic background (lacZ trp upp relA rpsL) (Neuhard and Thomassen, J. Bacteriol. 126:999). SØ874 carries a large chromosomal deletion removing the gene clusters for the biosynthesis of CA capsule and O-antigen. CLM5 is a derivative of SØ874 with a transposon insertion in the wecC gene that blocks the synthesis of ECA (Marolda et al., J. Bacteriol. 177:5539[1995]). FAM5 is a derivative of SØ874 carrying a deletion that eliminates the incorporation of heptose in the LPS core. Extracts were prepared from all of these E. coli K-12 strains and also from another E. coli K-12 strain, LCD27 YA21-6 (Obtained from Dr. Arisaka, Tokyo Institute of Technology). Bacteria were cultured overnight at 37° C. in Luria broth, killed by treatment with acetone followed by vacuum drying and finally resuspended in 10 mM HEPES. The extract was treated with 1M NaOH at 55° C. for 12 hr and neutralized with 1M HEPES (pH 7.4). The soluble fraction after centrifugation and filtration with 0.22 μm filter was applied to SUPEROSE 12 gel filtration column chromatography. Partial purification of NOD1-stimulatory molecules from E. coli and composition analyses. The amino acid composition of E. coli O55:B5 LPS was determined using AccQ·Tag amino acid analysis system (Waters, Milford, Mass.) after hydrolysis at 110° C. for 24 hr. For carbohydrate analysis, E coli K-12 YA21-6 (Ref 26) cultured overnight at 37° C. in L-broth were washed with TBS twice and incubated with TBS containing 1 mglml DNase I, RNase I and lysozyme for 37° C. for 2 hr. Acetone was added to the extracts at 50% final concentration and the insoluble fractions were washed with an excess of 75% and 100% acetone. After vacuum drying, the acetone extract was solublized with 1 M NaOH and incubated at 60° C. for 24 hr. The pH was adjusted to pH 5.0 with acetic acid and the soluble fraction was passed through SUPEROSE gel filtration column. SUPEROSE fractions with NOD1-stimulatory activity were diluted with 10 mM Tris-HCl (pH 8.8) and subjected to UnoQ column chromatography. The fractions were eluted with a linear gradient of 0–300 mM NaCl. The positive fractions were dialyzed against water and dried under vacuum. The monosaccharide composition of the fractions after TFA/methanol degradation was determined as previously described (Forsberg et al., J. Biol. Chem. 273:2747[1998]). Transfection and NF-κB Activation Assay. […]

Substance	NOD1-dependent NF-κB activation (NOD1 stimulation)
Palmitoyl-Cys ((RS)-2,3-di(palmitoyloxy)-propyl)-Ala-Gly) [synthetic lipoprotein]	not NOD1
γ-D-Gln-DAP [iQ-DAP]	stimulated NOD1
γ-D-glutamy-meso-diaminopimelic acid [iE-DAP]	stimulated NOD1
MurNAc-L-Ala-γ-D-Gln [MDP]	Neither MDP nor tetrameric forms of disaccharide dipeptide (4 mer) stimulated NOD1
